Data taken from patent US4966962A, “Reverse analogue of actinomycin D” (Trustees of Boston University, priority 1988, dated 1990).
Like-named read-outs stand apart in the source and are kept apart here. *1 amine or outer side, *2 acyl side, *3 side chain or, on linkers, in order; H or OH if unused. Where a SMILES comes first, the peptide text is derived from it. Bridges are numbered along the chain shown (N, C = ends). Roman numbers before positions name the chains, in order. [ ]: non-standard residue; d: D form. Actinocin(9to1) = Cc1c2oc3c(C)ccc(C(=O)[*:1])c3nc-2c(C(=O)[*:2])c(N)c1=O; NMeV = CN[C@H](C(=O)O)C(C)C; Sar = CNCC(=O)O

Legend:
[1] = system: B16 melanoma; test: In vivo antitumor activity against B16 melanoma; design: species or system BDF1 mice; settings: for % ILS / survivors on day 65/total injected / MST (range), median survival time: at optimal dose, ip days 1, 5, 9; for MST (range), median survival time: range of days of death; for optimal dose: ip, days 1, 5, 9
Protocol: ^a 0.2 mL of 1:5 (weight/volume) brei of B16 melanoma implanted
ip on day 0 in groups of nine BDF1 mice. Drugs administered ip^b
MST (range), median survival time in days (range of days for death of
individual animal). ^c % ILS (surv), percent increase in life span
(survivors on day 65/total injected).

[2] = system: rat liver microsomes; test: Metabolism in rat liver microsomes (M); type: in vitro ADME; settings: 6 h, NADPH-generating system
Protocol: (§1) In this respect, actinomycin is only about 30% as efficient as its synthetic analogues, RAD III (3c) and SAD (2) (Table II). Metabolic Studies, Metabolism in the Presence of Tumor Cell Homogenates and Rat Liver Microsomes. The cell homogenates (P388 cells were sonicated and were incubated at 37° C. with analogues for 16 h. Rat microsomes were harvested from phenobarbital-induced rats by standard procedure. Incubations were carried out for 6 h in the presence of a NADPH-generating system, i.e., glucose-6-phosphate dehydrogenase and glucose 6-phosphate. The metabolites and their water-soluble conjugates were isolated and identified with the use of tritiated analogues.
(§2) It was observed that the RAD analogues are metabolized to SAD (2) with the loss of oxazole ring. […] In tumor cells, a larger fraction of SAD (2) (30-50%) remains unmetabolized. SAD is found to form glucuronide and sulfate conjugates only in tumor cells. […] Isolation of SAD from RAD analogues is a very important step, because SAD is found to be a potent and effective antitumor agent in several murine tumor systems (Tables V-XII).

[3] = Toxic deaths in nontumored mice treated in parallel (colon 38 experiment); type: in vivo
Excerpt: × 100; in parenthesis, number of over 100 day survivors/number of
mice in a group of nontumored mice treated in parallel with the
tumorbearing mice and observed for 100 days.

[4] = Maximum tolerated dose (LD10) in tumor-free male mice; settings: ip days 1, 5, 9; deaths observed during 21 days; from plot of log dose vs percent mortality
Protocol: The analogues were also tested in tumor-free male mice for their LD10 values (Table XIV). The animals were given a broad range of doses (ip) on days 1, 5, and 9. The maximum tolerated doses of AMD and the analogues that caused death in only 10% of the tested animals in 21 days (i.e., LD10) were recorded as MTD. […] On the basis of these values, the calculated therapeutic index values of SAD is 96, and those of RAD I, II, and III are 60, 67, and 70, respectively.
control in P388 tumor bearing mice. ^c MTD (maximum tolerated dose) i
the lethal dose (milligram/kilogram) for 10% normal BDF1 male mice
days). Values were calculated from a plot of log dose vs percent

[5] = system: P388/S (adriamycin sensitive) leukemia; test: Antitumor activity in vivo, P388/S leukemia; design: species or system mice; settings: for tumor free survivors/total on day 60: P388/S, at optimal dose, ip days 1, 5, 9; for effectiveness relative to AMD with respect to %ILS and long-time survivors: P388 lymphocytic leukemia in mice
Protocol: The analogues were tested for their antitumor activities in P388 lymphocytic leukemia in male BDF1 mice.
^a Male CDF1 mic inoculated ip: 10^6 cells inoculum, day 0.
Drugs administered in 10% dimethyl sulfoxidesaline on days 1, 5, and 9. %
ILS = percent increase in life span. Fractions in parentheses = tumor fre
survivors/total on day 60^b. P388/S (adriamycin sensitive) and
P388/ADR (adriamycin resistant) tumors were evaluated in the same
experiment with agent listed.

[6] = system: rat liver microsomes; test: Stimulation of NADPH oxidation by rat hepatic microsomal incubations; type: biochemical; settings: for percentage stimulation of NADPH oxidation: (drug-stimulated rate - basal rate)/basal rate × 100; for NADPH oxidation: measured at 340 nm, average ± standard error of triplicate
Excerpt: It has been reported that the quinone imino chromophore of actinomycin can be subjected to enzyme-catalyzed single-electron reduction to give free-radical species that generate superoxides by reacting with molecular oxygen. The process needs a reductive cofactor NADPH, which is oxidized to NADP^+ during the process, giving a change in the absorbance at 340 nm that can be measured spectrophotometerically. Alternatively, the superoxides generated during the process may be allowed to react with epinephrine to produce adrenochrome, a chromophore with strong absorbance at 480 nm that can be measured spectrophotmetrically.
The superoxide formations were studied via NADPH oxidation catalyzed by AMD analogues in the presence of rat liver microsomes. […] The process of adrenochrome formation is inhibited by superoxide dismutase, confirming that superoxide is indeed generated in these systems.
^a The percentage stimulation = (drugstimulated rate basal rate)/basa
rate × 100 and is shown in parentheses. NADPH oxidation was measure
at 340 nm and adrenochrome formation was measured at 489 nm; the values
are average ± standard errors of triplicate analyses. ^b SOD,

[7] = Metabolism in tumor cell homogenate (T); type: in vitro ADME, murine; settings: P388 homogenate (T), 37° C., 16 h
Protocol: as §1, §2

[8] = system: P388 cells; test: Inhibition of nucleic acid synthesis in P388 cells in vitro; type: cell-based, murine
Excerpt: In addition to the P388 cells, this inhibitory activity in human carcinoma HT-29 grown in tissue culture has been also examined. The values of the drug concentration producing 50% inhibition of the incorporation of [^3 H]-thymidine and [^14 C] uridine into nucleic acid macromolecules are presented in Table V. These values are taken as estimates of the inhibition of DNA and RNA synthesis. […] Furthermore, the inhibitory activities of these analogues are three-to fivefold higher than AMD; the order of potency of the analogues for their inhibition of DNA synthesis is:
DNA and RNA synthesis in P388 and HT-29 cells lines was monitored in the presence of drugs, and the rates of inhibition of their synthesis were estimated from the amounts of [2-^14 C]-uridine and [^3 H]-thymidine into RNA and DNA, respectively, according to the methods described previously.
^a Human colon carcinoma in culture, IC50, drug concentration
producing a 50% inhibition of incorporation of precursor [^3 H]
thymidine into DNA and [^14 C] uridine into RNA in the cell lines,
isolated as acid preciptable materials. Data are average of replicate

[9] = system: human colon carcinoma HT-29 cell line; test: Cell viability by soft agar cloning; type: cell-based; settings: 2 h treatment at 37° C., from plot of concentration vs colony formation
Protocol: Furthermore, the activity of the analogues against a human colon carcinoma HT-29 cell line in culture was evaluated. After the cells were treated for 2 h with 0.01-10.0 uM of the drugs at 37° C., the cells were washed with ice-cold PBS (phosphate buffered saline), and the cell viability was assessed by soft agar cloning. Cells viability was expressed as the percentage of colonies from the drug-treated cells relative to control cells after correcting for the cloning efficiency, which ranged from 60% to 80%.

[10] = dose 0.15 mg/kg iv days 1, 5, 9
[11] = dose 0.30 mg/kg iv days 1, 5, 9
[12] = dose 0.60 mg/kg iv days 1, 5, 9
[13] = [3H]thymidine incorporation, read-out: IC50, DNA synth
[14] = [14C]uridine incorporation, read-out: IC50, RNA synth
[15] = dose 1.20 mg/kg iv days 1, 5, 9

Row | SMILES | % ILS [1] [%] | survivors on day 65/total injected [1] | MST (range), median survival time [1] | optimal dose [1] [μg/kg per inj] | percent unconverted drug [2] [%] | toxic deaths [3, 10] | toxic deaths [3, 11] | toxic deaths [3, 12] | MTD (maximum tolerated dose), lethal dose for 10% of normal mice (LD10) [4] [milligram/kilogram] | tumor free survivors/total on day 60 [5] | percentage stimulation of NADPH oxidation [6] [%] | NADPH oxidation [6] | percent unconverted drug [7] | IC50 [8, 13] [nM] | IC50 [8, 14] [nM] | toxic deaths [3, 15] | effectiveness relative to AMD with respect to %ILS and long-time survivors [5] | LD90, drug concentration producing 90% reduction in cell viability [9] [µM] | percent isolated: tissue bound [2] [%] | percent isolated: unidentified metabolite [2] [%] | also measured
1 | Cc1c2oc3c(C)ccc(C(=O)N[C@@H]4C(=O)N[C@H](C(C)C)C(=O)N5CCC[C@H]5C(=O)N(C)CC(=O)N(C)[C@@H](C(C)C)C(=O)O[C@@H]4C)c3nc-2c(C(=O)N[C@@H]2C(=O)N[C@H](C(C)C)C(=O)N3CCC[C@H]3C(=O)N(C)CC(=O)N(C)[C@@H](C(C)C)C(=O)O[C@@H]2C)c(N)c1=O [AMD (1), Actinomycin D] (I: T[dV]P[Sar][NMeV] / II: T[dV]P[Sar][NMeV]; ester I:1-I:C, II:1-II:C; linker I:N-II:N via Actinocin(9to1)) | 48 | 2/9 | 43(36-54) days | 250 | 100 | 1/9 | 0/9 | 4/9 | 0.25 | 1/8 | 9.9 | 10.01 ± 0.90 nmol/min per mg of protein | 100% | 1100 ± 90 | 50 ± 5 | – | – | – | – | – | toxic deaths ([3]; dose 0.075 mg/kg iv days 1, 5, 9): 0/9; toxic deaths ([3]; dose 0.45 mg/kg iv days 1, 5, 9): 1/9
2 | Cc1c2oc3c(C)c4oc(-c5ccccc5)nc4c(C(=O)N[C@@H]4C(=O)N[C@H](C(C)C)C(=O)N5CCC[C@H]5C(=O)N(C)CC(=O)N(C)[C@@H](C(C)C)C(=O)O[C@@H]4C)c3nc-2c(C(=O)N[C@@H]2C(=O)N[C@H](C(C)C)C(=O)N3CCC[C@H]3C(=O)N(C)CC(=O)N(C)[C@@H](C(C)C)C(=O)O[C@@H]2C)c(N)c1=O [RAD II (3b)] | 103 | 5/9 | 59(53-59) days | 300 | – | 1/9 | 0/9 | 0/9 | 2.00 | 4/8 | 610 | 65.0 ± 5.95 nmol/min per mg of protein | – | 780 ± 66 | 70 ± 5 | 4/9 | two-to threefold | 0.2 | – | – | –
3 | Cc1c2oc3c(C)c4oc(CC(=O)NCCCCN)nc4c(C(=O)N[C@@H]4C(=O)N[C@H](C(C)C)C(=O)N5CCC[C@H]5C(=O)N(C)CC(=O)N(C)[C@@H](C(C)C)C(=O)O[C@@H]4C)c3nc-2c(C(=O)N[C@@H]2C(=O)N[C@H](C(C)C)C(=O)N3CCC[C@H]3C(=O)N(C)CC(=O)N(C)[C@@H](C(C)C)C(=O)O[C@@H]2C)c(N)c1=O [RAD III (3c)] | 114 | 6/9 | 62(53-61) days | 300 | 10.0 ± 1.0 | – | 0/9 | 4/9 | 3.50 | 6/8 | 812 | 87.1 ± 7.1 nmol/min per mg of protein | 20.0 ± 2.5% | 430 ± 38 | 55 ± 7 | 2/9 | two-to threefold | 5.0 | 5.0 ± 0.5 | 8.0 ± 1.0 | percent metabolite isolated: SAD [2]: 65.0 ± 5.5%; percent metabolite isolated: SAD-glucuronide and/or sulfate [2]: nil; percent metabolite isolated: protein conjugates [2]: 10.0 ± 10%; P388/S optimal dose ([5]; ip on days 1, 5, and 9): 1.0 mg/kg; percent isolated: tissue bound [7]: 5.0 ± 1.0%; percent isolated: unidentified metabolite [7]: 5.0 ± 2.0%; percent metabolite isolated: SAD [7]: 20.0 ± 2.0%; percent metabolite isolated: SAD-glucuronide and/or sulfate [7]: 40.0 ± 5.5%; percent metabolite isolated: protein conjugates [7]: 8.0 ± 2.0%
4 | Cc1c2oc3c(C)c(O)c(N)c(C(=O)N[C@@H]4C(=O)N[C@H](C(C)C)C(=O)N5CCC[C@H]5C(=O)N(C)CC(=O)N(C)[C@@H](C(C)C)C(=O)O[C@@H]4C)c3nc-2c(C(=O)N[C@@H]2C(=O)N[C@H](C(C)C)C(=O)N3CCC[C@H]3C(=O)N(C)CC(=O)N(C)[C@@H](C(C)C)C(=O)O[C@@H]2C)c(N)c1=O [SAD (2)] | 96 | 4/9 | 57(33-61) days | 300 | 50.0 ± 10.5 | – | 0/9 | 0/9 | 2.40 | 4/8 | 606 | 64.3 ± 2.11 nmol/min per mg of protein | 30-50% | 12 ± 4 | 15 | 4/9 | two-to threefold | 0.1 | 15.0 ± 3.0 | 15.0 ± 4.0 | percent metabolite isolated: SAD-glucuronide and/or sulfate [2]: nil; percent metabolite isolated: protein conjugates [2]: 20.0 ± 5.0%; percent isolated: tissue bound [7]: 7.5 ± 1.0%; percent isolated: unidentified metabolite [7]: 10.0 ± 1.0%; percent metabolite isolated: SAD-glucuronide and/or sulfate [7]: 47.0 ± 6.5%; percent metabolite isolated: protein conjugates [7]: 5.5 ± 1.5%; percent unconverted drug ([7]; listed as SAD(2)): 30.0 ± 3.0%
